Measurements as given in patent publication US8012967B2, “Minor groove binders” (University of Strathclyde, priority 2006, dated 2011).
Converted amounts (≈) assume the structure as drawn. Like-named read-outs stand apart in the source and are kept apart here.

Key:
Format in all cases: cell-based
[1] = test system: Aspergillus niger (IMI 1745); assay: MIC, Aspergillus niger; settings: for MIC: read-out: Minimum inhibitory concentrations (MICs), A. niger
Description: (§1) The effects of compounds of the invention in relation to inhibiting the growth of various microorganisms was determined using methods known to those skilled in the art, for example in vitro methods as described in J. Med. Chem. 47, 2133-2156 (2004) and in vivo methods as described in J. Med. Microbiol. 46, 208-213 (1997), the disclosures of which documents are hereby incorporated by reference. In particular, minimum inhibitory concentrations (MICs) against microorganisms (e.g. S. Aureus, Streptococcus faecalis, Aspergillus niger, Candida albicans or Mycobacterium fortuitum) for compounds of the invention may be measured using procedures such as those described in A. J. Drummond and […] development of microbiological methods for phytochemical screening” Recent Res. Devel. […] The test wells on each 96 well microtitre plate were initially inoculated with culture medium (100 μL) using Mueller-Hinton Broth for antibacterial assays and Sabouraud Broth for antifungal assays. A solution of each test sample (100 μL) was added to one row of each plate and a series of doubling dilutions made for successive rows. Incubation was at 37° C. for antibacterial assay and 25° C. for antifungal assay. […] From the observed pattern of colour, the MIC was determined. All tests included sterility and growth controls.

[2] = test system: Staphylococcus aureus Strain 1 (BSAC04(1)) (Clinical isolate from Glasgow Royal Infirmary); assay: MIC, Staphylococcus aureus Strain 1; settings: Staphylococcus aureus, read-out: Minimum inhibitory concentrations (MICs), S aureus 1
Description: The effects of compounds of the invention in relation to inhibiting the growth of various microorganisms was determined using methods known to those skilled in the art, for example in vitro methods as described in J. Med. Chem. 47, 2133-2156 (2004) and in vivo methods as described in J. Med. Microbiol. 46, 208-213 (1997), the disclosures of which documents are hereby incorporated by reference.
In particular, minimum inhibitory concentrations (MICs) against microorganisms (e.g. S. Aureus, Streptococcus faecalis, Aspergillus niger, Candida albicans or Mycobacterium fortuitum) for compounds of the invention may be measured using procedures such as those described in A. J. Drummond and R. D. Waigh “The development of microbiological methods for phytochemical screening” Recent Res. Devel. Phytochem. 4, 143-152 (2000), the disclosures of which document are hereby incorporated by reference.
Sample dilutions were typically prepared by dissolving the test sample (2 mg) in sterile water (10 mL) to provide a working concentration of 200 μg/ml. The test wells on each 96 well microtitre plate were initially inoculated with culture medium (100 μL) using Mueller-Hinton Broth for antibacterial assays and Sabouraud Broth for antifungal assays. A solution of each test sample (100 μL) was added to one row of each plate and a series of doubling dilutions made for successive rows. Incubation was at 37° C. for antibacterial assay and 25° C. for antifungal assay. […] From the observed pattern of colour, the MIC was determined. All tests included sterility and growth controls.

[3] = test system: Staphylococcus aureus Strain 2 (NCTC 6571); assay: MIC, Staphylococcus aureus Strain 2; settings: for MIC: read-out: Minimum inhibitory concentrations (MICs), S. aureus 2
Description: as §1

[4] = test system: Streptococcus faecalis (NCTC 775); assay: MIC, Streptococcus faecalis; settings: for MIC: read-out: Minimum inhibitory concentrations (MICs), St. faecalis
Description: as §1

[5] = test system: Candida albicans (NCPF3179); assay: MIC, Candida albicans; settings: for MIC: read-out: Minimum inhibitory concentrations (MICs), C. albicans
Description: as §1

[6] = Aspergillus niger, value in parentheses, na = not active
[7] = Aspergillus niger, value outside parentheses
[8] = value in parentheses, na = not active
[9] = Staphylococcus aureus, NCTC6571, value in parentheses, na = not active
[10] = Staphylococcus aureus, NCTC6571, value outside parentheses
[11] = Enterococcus faecalis, NCTC775, value in parentheses, na = not active
[12] = Enterococcus faecalis, NCTC775, value outside parentheses
[13] = Candida albicans, NCPF3179, value in parentheses, na = not active
[14] = Candida albicans, NCPF3179, value outside parentheses

| Compound | MIC [1, 6] | MIC [1, 7] | MIC [2, 8] | MIC ([2]; value outside parentheses) | MIC [3, 9] | MIC [3, 10] | MIC [4, 11] | MIC [4, 12] | also measured |
| --- | --- | --- | --- | --- | --- | --- | --- | --- | --- |
| CN(C)CCCNC(=O)c1cc(NC(=O)c2cc(NC(=O)c3ccc(/C=C/c4cnc5ccccc5c4)cc3)cn2C)cn1C [Example 5, N-[5-({[3-(Dimethylamino)propyl]amino}carbonyl)-1-methyl-1H-pyrrol-3-yl]-1-methyl-4-({4-[(E)-2-(3-quinolinyl)ethenyl]benzoyl}amino)-1H-pyrrole-2-carboxamide] | 50 µg/mL | 70 µM | 25 µg/mL | 35 µM | 25 µg/mL | 35 µM | 50 µg/mL | 70 µM | – |
| COc1cccc(/C=C/c2cccc(C(=O)Nc3cc(C(=O)Nc4cc(C(=O)NCCCN(C)C)n(C)c4)n(C)c3)c2)c1 [Example 6] | – | – | – | – | – | – | – | – | Minimum inhibitory concentrations (MICs), A. niger [1, 8]: 100 µg/mL (≈ 172 µM); MIC ([1]; value outside parentheses): 143 µM; Minimum inhibitory concentrations (MICs), S. aureus 2 [3, 8]: 50 µg/mL (≈ 85.8 µM); MIC ([3]; value outside parentheses): 72 µM; Minimum inhibitory concentrations (MICs), St. faecalis [4, 8]: 50 µg/mL (≈ 85.8 µM); MIC ([4]; value outside parentheses): 72 µM |
| CN(C)CCCNC(=O)c1cc(NC(=O)c2cc(NC(=O)c3ccc(/C=C/c4ccncc4)cc3)cn2C)cn1C [Example 7, N-[5-({[3-(Dimethylamino)propyl]amino}carbonyl)-1-methyl-1H-pyrrol-3-yl]-1-methyl-4-({4-[(E)-2-(4-pyridinyl)ethenyl]benzoyl}amino)-1H-pyrrole-2-carboxamide] | – | – | 16 µg/mL | 24 µM | 50 µg/mL | 75 µM | 25 µg/mL | 37 µM | – |
| CN(C)CCCNC(=O)c1cc(NC(=O)c2cc(NC(=O)c3cc(/C=C/c4ccc([N+](=O)[O-])cc4)cn3C)cn2C)cn1C [Example 8, N-[5-({[5-({[3-(Dimethylamino)propyl]amino}carbonyl)-1-methyl-1H-pyrrol-3-yl]amino}carbonyl)-1-methyl-1H-pyrrol-3-yl]-1-methyl-4-[(E)-2-(4-nitrophenyl)-ethenyl]-1H-pyrrole-2-carboxamide] | 100 µg/mL | 140 µM | – | – | 50 µg/mL | 70 µM | 50 µg/mL | 70 µM | – |
| Cn1cc(NC(=O)c2cc(NC(=O)c3cc(/C=C/c4ccc5ccccc5n4)cn3C)cn2C)cc1C(=O)NCCN1CCOCC1 [Example 11, 1-Methyl-N-[1-methyl-5-({[2-(4-morpholinyl)ethyl]amino}carbonyl)-1H-pyrrol-3-yl]-4-[({1-methyl-4-[(E)-2-(2-quinolinyl)ethenyl]-1H-pyrrol-2-yl}carbonyl)-amino]-1H-pyrrole-2-carboxamide] | – | – | 4 µg/mL | 4.6 µM | – | – | – | – | MIC [5, 13]: 100 µg/mL; MIC [5, 14]: 134 µM |
| Cn1cc(NC(=O)c2cc(NC(=O)c3csc(/C=C/c4ccc5ccccc5n4)n3)cn2C)cc1C(=O)NCCN1CCOCC1 [Example 12, N-[1-Methyl-5-({[1-methyl-5-({[2-(4-morpholinyl)ethyl]amino}carbonyl)-1H-pyrrol-3-yl]amino}carbonyl)-1H-pyrrol-3-yl]-2-[(E)-2-(2-quinolinyl)ethenyl]-1,3-thiazole-4-carboxamide] | – | – | 8 µg/mL | 10 µM | – | – | – | – | – |
| Cn1cc(NC(=O)c2cc(NC(=O)c3ccc(/C=C/c4cc5ccccc5nc4On4nnc5ccccc54)cc3)cn2C)cc1C(=O)NCCN1CCOCC1 [Example 14, 4-[(4-{(E)-2-[2-(1H-1,23-Benzotriazol-1-yloxy)-3-quinolinyl]ethenyl}benzoyl)-amino]-1-methyl-N-[1-methyl-5-({[2-(4-morpholinyl)ethyl]amino}carbonyl)-1H-pyrrol-3-yl]-1H-pyrrole-2-carboxamide] | – | – | – | – | – | – | – | – | Minimum inhibitory concentrations (MICs), A. niger [1, 8]: 50 µg/mL (≈ 65.4 µM); MIC ([1]; value outside parentheses): 57 µM; Minimum inhibitory concentrations (MICs), C. albicans [5, 8]: 100 µg/mL (≈ 131 µM); MIC ([5]; value outside parentheses): 114 µM; Minimum inhibitory concentrations (MICs), S. aureus 2 [3, 8]: 50 µg/mL (≈ 65.4 µM); MIC ([3]; value outside parentheses): 57 µM; Minimum inhibitory concentrations (MICs), St. faecalis [4, 8]: 100 µg/mL (≈ 131 µM); MIC ([4]; value outside parentheses): 114 µM |
| Cn1cc(NC(=O)c2cc(NC(=O)c3ccc(/C=C/c4ccc5ccccc5n4)cc3)cn2C)cc1C(=O)NCCN1CCOCC1 [Example 15] | – | – | – | – | – | – | – | – | Minimum inhibitory concentrations (MICs), A. niger [1, 8]: 100 µg/mL (≈ 158 µM); MIC ([1]; value outside parentheses): 134 µM; Minimum inhibitory concentrations (MICs), C. albicans [5, 8]: 100 µg/mL (≈ 158 µM); MIC ([5]; value outside parentheses): 134 µM; Minimum inhibitory concentrations (MICs), S. aureus 2 [3, 8]: 100 µg/mL (≈ 158 µM); MIC ([3]; value outside parentheses): 134 µM |
| CC(C)CCc1sc(NC(=O)c2cc(NC(=O)c3ccc(/C=C/c4ccc5ccccc5n4)cc3)cn2C)nc1C(=O)NCCN1CCOCC1 [Example 19, 5-Isopentyl-2-({[1-methyl-4-({4-[(E)-2-(2-quinolinyl)ethenyl]benzoyl}amino)-1H-pyrrol-2-yl]carbonyl}amino)-N-[2-(4-morpholinyl)ethyl]-1,3-thiazole-4-carboxamide] | 100 µg/mL | 122 µM | – | – | – | – | – | – | – |

More lines, main results first:

| MIC [1, 6] | MIC [1, 7] | MIC [2, 8] | MIC ([2]; value outside parentheses) | MIC [3, 9] | MIC [3, 10] | MIC [4, 11] | MIC [4, 12] | Compound | also measured |
| --- | --- | --- | --- | --- | --- | --- | --- | --- | --- |
| 100 µg/mL | 138 µM | 2 µg/mL | 2.7 µM | 8 µg/mL | 11 µM | 50 µg/mL | 69 µM | COc1cccc(/C=C/c2ccc(C(=O)Nc3cc(C(=O)Nc4cc(C(=O)NCCN5CCOCC5)n(C)c4)n(C)c3)cc2)c1 [Example 1, 4-({[4-({4-[(E)-2-(3-Methoxyphenyl)ethenyl]benzoyl}amino)-1-methyl-1H-pyrrol-2-yl]carbonyl}amino)-1-methyl-N-[2-(4-morpholinyl)ethyl]-1H-pyrrole-2-carboxamide] | – |
| 100 µg/mL | 143 µM | 4 µg/mL | 5.7 µM | 16 µg/mL | 22.9 µM | 12.5 µg/mL | 16.4 µM | Cn1cccc1/C=C/c1ccc(C(=O)Nc2cc(C(=O)Nc3cc(C(=O)NCCN4CCOCC4)n(C)c3)n(C)c2)cc1 [Example 3, 1-Methyl-N-[1-methyl-5-({[2-(4-morpholinyl)ethyl]amino}carbonyl)-1H-pyrrol-3-yl]-4-({4-[(E)-2-(1-methyl-1H-pyrrol-2-yl)ethenyl]benzoyl}amino)-1H-pyrrole-2-carboxamide] | – |
| 50 µg/mL | 72 µM | 6.25 µg/mL | 8.9 µM | 12.5 µg/mL | 17.9 µM | – | – | COc1cccc(/C=C/c2ccc(C(=O)Nc3cc(C(=O)Nc4cc(C(=O)NCCCN(C)C)n(C)c4)n(C)c3)cc2)c1 [Example 4, N-[5-({[3-(Dimethylamino)propyl]amino}carbonyl)-1-methyl-1H-pyrrol-3-yl]-4-({4-[(E)-2-(3-methoxyphenyl)ethenyl]benzoyl}amino)-1-methyl-1H-pyrrole-2-carboxamide] | MIC [5, 13]: 100 µg/mL; MIC [5, 14]: 143 µM |
| 100 µg/mL | 136 µM | – | – | 50 µg/mL | 68 µM | 100 µg/mL | 136 µM | Cn1cc(NC(=O)c2cc(NC(=O)c3ccc(/C=C/c4ccc5ccccc5c4)cc3)cn2C)cc1C(=O)NCCN1CCOCC1 [Example 13, 1-Methyl-N-[1-methyl-5-({[2-(4-morpholinyl)ethyl]amino}carbonyl)-1H-pyrrol-3-yl]-4-({4-[(E)-2-(2-naphthyl)ethenyl]benzoyl}amino)-1H-pyrrole-2-carboxamide] | – |
